Laboratory results from ChEMBL document CHEMBL4507265 (2021).

Assays:
[1] = molecular target: Protein-tyrosine kinase 6 (Homo sapiens) (UniProt Q13882); details: Compound concentration 1000.0 nM
[2] = molecular target: Phosphatidylinositol 4,5-bisphosphate 3-kinase catalytic subunit beta isoform (Homo sapiens) (UniProt P42338); details: Compound concentration 1000.0 nM
[3] = molecular target: Serine/threonine-protein kinase Sgk1 (Homo sapiens) (UniProt O00141); details: Compound concentration 1000.0 nM
[4] = molecular target: Serine/threonine-protein kinase PAK 2 (Homo sapiens) (UniProt Q13177); details: Compound concentration 1000.0 nM
[5] = molecular target: Beta-1 adrenergic receptor (Homo sapiens) (UniProt P08588); details: Compound concentration 10.0 uM
[6] = molecular target: Serine/threonine-protein kinase D1 (Homo sapiens) (UniProt Q15139); details: Compound concentration 1000.0 nM
[7] = molecular target: TRAF2 and NCK-interacting protein kinase (Homo sapiens) (UniProt Q9UKE5); details: Compound concentration 1000.0 nM
[8] = molecular target: Dual specificity protein kinase CLK2 (Homo sapiens) (UniProt P49760); details: Compound concentration 1000.0 nM
[9] = molecular target: Mitogen-activated protein kinase 13 (Homo sapiens) (UniProt O15264); details: Compound concentration 1000.0 nM
[10] = molecular target: Cyclin-dependent kinase 3 (Homo sapiens) (UniProt Q00526); details: Compound concentration 1000.0 nM
[11] = molecular target: Serine/threonine-protein kinase SIK3 (Homo sapiens) (UniProt Q9Y2K2); details: Compound concentration 1000.0 nM
[12] = molecular target: Serine/threonine-protein kinase VRK2 (Homo sapiens) (UniProt Q86Y07); details: Compound concentration 1000.0 nM
[13] = tested on: Leucine-rich repeat serine/threonine-protein kinase 2 (Homo sapiens), Q5S007 [G2019S]; details: Compound concentration 1000.0 nM
[14] = molecular target: Serine/threonine-protein kinase PLK1 (Homo sapiens) (UniProt P53350); details: Compound concentration 1000.0 nM
[15] = molecular target: Serine/threonine-protein kinase Nek3 (Homo sapiens) (UniProt P51956); details: Compound concentration 1000.0 nM
[16] = tested on: Fibroblast growth factor receptor 3 (Homo sapiens), P22607 [G697C]; details: Compound concentration 1000.0 nM
[17] = molecular target: Tyrosine-protein kinase Fer (Homo sapiens) (UniProt P16591); details: Compound concentration 1000.0 nM
[18] = molecular target: Insulin receptor (Homo sapiens) (UniProt P06213); details: Compound concentration 1000.0 nM
[19] = molecular target: Serine/threonine-protein kinase Nek1 (Homo sapiens) (UniProt Q96PY6); details: Compound concentration 1000.0 nM
[20] = tested on: Phosphatidylinositol 4,5-bisphosphate 3-kinase catalytic subunit alpha isoform (Homo sapiens), P42336 [E545K]; details: Compound concentration 1000.0 nM
[21] = molecular target: Cyclin-dependent kinase 2 (Homo sapiens) (UniProt P24941); details: Compound concentration 1000.0 nM
[22] = molecular target: Serine/threonine-protein kinase PAK 4 (Homo sapiens) (UniProt O96013); details: Compound concentration 1000.0 nM
[23] = molecular target: 5-hydroxytryptamine receptor 1D (Homo sapiens) (UniProt P28221); details: Compound concentration 10.0 uM
[24] = molecular target: Mitogen-activated protein kinase kinase kinase 12 (Homo sapiens) (UniProt Q12852); details: Compound concentration 1000.0 nM
[25] = molecular target: 5-hydroxytryptamine receptor 2A (Homo sapiens) (UniProt P28223); details: Compound concentration 10.0 uM
[26] = molecular target: Dual specificity testis-specific protein kinase 1 (Homo sapiens) (UniProt Q15569); details: Compound concentration 1000.0 nM
[27] = molecular target: Tyrosine-protein kinase CSK (Homo sapiens) (UniProt P41240); details: Compound concentration 1000.0 nM
[28] = molecular target: Calcium/calmodulin-dependent protein kinase kinase 1 (Homo sapiens) (UniProt Q8N5S9); details: Compound concentration 1000.0 nM
[29] = molecular target: Dual specificity tyrosine-phosphorylation-regulated kinase 1B (Homo sapiens) (UniProt Q9Y463); details: Compound concentration 1000.0 nM
[30] = molecular target: Insulin-like growth factor 1 receptor (Homo sapiens) (UniProt P08069); details: Compound concentration 1000.0 nM
[31] = tested on: Epidermal growth factor receptor (Homo sapiens), P00533 [UNDEFINED MUTATION]; details: Compound concentration 1000.0 nM
[32] = molecular target: RAC-gamma serine/threonine-protein kinase (Homo sapiens) (UniProt Q9Y243); details: Compound concentration 1000.0 nM
[33] = molecular target: Bone morphogenetic protein receptor type-2 (Homo sapiens) (UniProt Q13873); details: Compound concentration 1000.0 nM
[34] = molecular target: Activin receptor type-1-like (Homo sapiens) (UniProt P37023); details: Compound concentration 1000.0 nM
[35] = tested on: Tyrosine-protein kinase ABL1 (Homo sapiens), P00519 [F317L]; details: Compound concentration 1000.0 nM
[36] = molecular target: Mitogen-activated protein kinase kinase kinase kinase 4 (Homo sapiens) (UniProt O95819); details: Compound concentration 1000.0 nM
[37] = molecular target: Serine/threonine-protein kinase ULK2 (Homo sapiens) (UniProt Q8IYT8); details: Compound concentration 1000.0 nM
[38] = molecular target: Serine/threonine-protein kinase WNK2 (Homo sapiens) (UniProt Q9Y3S1); details: Compound concentration 1000.0 nM
[39] = molecular target: Dual specificity protein kinase CLK3 (Homo sapiens) (UniProt P49761); details: Compound concentration 1000.0 nM
[40] = molecular target: Interleukin-1 receptor-associated kinase 4 (Homo sapiens) (UniProt Q9NWZ3); details: Compound concentration 1000.0 nM
[41] = molecular target: Serine/threonine-protein kinase N1 (Homo sapiens) (UniProt Q16512); details: Compound concentration 1000.0 nM
[42] = molecular target: Testis-specific serine/threonine-protein kinase 1 (Homo sapiens) (UniProt Q9BXA7); details: Compound concentration 1000.0 nM
[43] = molecular target: Calcium-dependent protein kinase 1 (Plasmodium falciparum) (UniProt P62344); details: Compound concentration 1000.0 nM
[44] = molecular target: Homeodomain-interacting protein kinase 3 (Homo sapiens) (UniProt Q9H422); details: Compound concentration 1000.0 nM
[45] = molecular target: Serine/threonine-protein kinase STK11 (Homo sapiens) (UniProt Q15831); details: Compound concentration 1000.0 nM
Chain of Serine/threonine-protein kinase STK11 (Homo sapiens) (Q15831 whole entry): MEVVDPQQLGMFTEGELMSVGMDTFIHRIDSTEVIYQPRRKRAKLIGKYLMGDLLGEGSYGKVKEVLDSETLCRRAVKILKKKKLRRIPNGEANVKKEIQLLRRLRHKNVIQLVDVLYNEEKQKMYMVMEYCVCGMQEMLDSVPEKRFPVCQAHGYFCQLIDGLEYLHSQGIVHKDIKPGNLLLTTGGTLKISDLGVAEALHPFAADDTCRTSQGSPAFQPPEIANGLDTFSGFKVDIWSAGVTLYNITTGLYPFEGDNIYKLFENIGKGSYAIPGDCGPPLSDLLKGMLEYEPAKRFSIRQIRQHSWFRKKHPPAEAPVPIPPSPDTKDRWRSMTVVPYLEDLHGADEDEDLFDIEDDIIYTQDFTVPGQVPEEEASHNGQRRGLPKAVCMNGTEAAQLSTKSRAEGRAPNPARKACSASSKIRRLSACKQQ

Chain of Serine/threonine-protein kinase Sgk1 (Homo sapiens) (O00141 whole entry): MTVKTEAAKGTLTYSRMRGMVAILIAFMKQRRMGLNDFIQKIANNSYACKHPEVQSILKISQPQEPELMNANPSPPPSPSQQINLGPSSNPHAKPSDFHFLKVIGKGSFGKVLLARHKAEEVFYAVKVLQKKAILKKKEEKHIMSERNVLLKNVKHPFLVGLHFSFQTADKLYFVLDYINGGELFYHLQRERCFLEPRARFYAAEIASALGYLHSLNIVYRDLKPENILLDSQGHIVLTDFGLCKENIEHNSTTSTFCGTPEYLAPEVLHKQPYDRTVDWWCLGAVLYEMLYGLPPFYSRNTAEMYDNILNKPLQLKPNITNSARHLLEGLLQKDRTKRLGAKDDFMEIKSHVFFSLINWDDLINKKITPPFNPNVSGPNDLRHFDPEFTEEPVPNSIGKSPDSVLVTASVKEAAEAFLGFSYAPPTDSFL
Chain of Mitogen-activated protein kinase kinase kinase 12 (Homo sapiens) (Q12852 whole entry): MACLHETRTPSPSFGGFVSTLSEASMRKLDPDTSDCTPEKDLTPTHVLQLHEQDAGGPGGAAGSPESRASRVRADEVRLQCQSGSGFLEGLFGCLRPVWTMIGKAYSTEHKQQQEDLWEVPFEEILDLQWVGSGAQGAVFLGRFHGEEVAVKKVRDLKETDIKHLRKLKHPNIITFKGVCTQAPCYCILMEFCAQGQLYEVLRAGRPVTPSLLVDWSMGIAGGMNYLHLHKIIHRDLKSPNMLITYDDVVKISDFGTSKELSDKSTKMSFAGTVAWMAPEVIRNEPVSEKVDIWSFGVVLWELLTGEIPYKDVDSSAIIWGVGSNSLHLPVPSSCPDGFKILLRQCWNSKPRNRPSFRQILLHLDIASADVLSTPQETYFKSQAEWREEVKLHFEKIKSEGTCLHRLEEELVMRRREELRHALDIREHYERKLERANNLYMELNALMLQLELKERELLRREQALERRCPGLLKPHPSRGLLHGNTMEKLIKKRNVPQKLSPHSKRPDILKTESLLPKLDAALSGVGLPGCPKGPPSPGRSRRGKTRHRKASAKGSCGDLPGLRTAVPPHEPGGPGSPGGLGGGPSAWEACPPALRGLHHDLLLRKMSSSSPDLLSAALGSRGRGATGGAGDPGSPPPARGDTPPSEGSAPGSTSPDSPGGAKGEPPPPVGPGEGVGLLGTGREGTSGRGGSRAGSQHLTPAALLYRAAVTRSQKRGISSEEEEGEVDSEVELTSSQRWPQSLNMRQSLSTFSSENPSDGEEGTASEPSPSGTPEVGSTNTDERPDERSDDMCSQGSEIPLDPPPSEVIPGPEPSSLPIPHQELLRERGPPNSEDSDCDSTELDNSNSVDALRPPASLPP
Chain of Insulin receptor (Homo sapiens) (P06213 28-758 limits assumed): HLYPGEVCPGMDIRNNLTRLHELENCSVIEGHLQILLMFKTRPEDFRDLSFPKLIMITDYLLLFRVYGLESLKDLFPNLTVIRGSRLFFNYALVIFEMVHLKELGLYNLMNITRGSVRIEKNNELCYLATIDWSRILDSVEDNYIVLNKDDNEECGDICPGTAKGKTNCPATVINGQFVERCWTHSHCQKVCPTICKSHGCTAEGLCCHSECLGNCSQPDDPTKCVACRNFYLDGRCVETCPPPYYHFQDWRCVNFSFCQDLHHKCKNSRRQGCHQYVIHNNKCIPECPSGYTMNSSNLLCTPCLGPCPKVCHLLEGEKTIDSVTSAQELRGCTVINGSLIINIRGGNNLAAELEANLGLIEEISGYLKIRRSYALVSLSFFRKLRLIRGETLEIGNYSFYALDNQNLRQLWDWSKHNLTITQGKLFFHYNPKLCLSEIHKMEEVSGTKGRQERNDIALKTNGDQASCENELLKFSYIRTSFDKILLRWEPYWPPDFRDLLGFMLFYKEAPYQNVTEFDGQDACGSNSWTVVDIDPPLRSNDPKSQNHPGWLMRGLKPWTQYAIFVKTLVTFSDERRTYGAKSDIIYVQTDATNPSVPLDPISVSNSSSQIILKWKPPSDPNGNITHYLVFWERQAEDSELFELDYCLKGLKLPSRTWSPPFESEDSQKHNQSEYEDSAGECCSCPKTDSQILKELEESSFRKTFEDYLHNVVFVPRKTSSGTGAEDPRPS
Chain of Insulin receptor (Homo sapiens) (P06213 763-1382 limits assumed): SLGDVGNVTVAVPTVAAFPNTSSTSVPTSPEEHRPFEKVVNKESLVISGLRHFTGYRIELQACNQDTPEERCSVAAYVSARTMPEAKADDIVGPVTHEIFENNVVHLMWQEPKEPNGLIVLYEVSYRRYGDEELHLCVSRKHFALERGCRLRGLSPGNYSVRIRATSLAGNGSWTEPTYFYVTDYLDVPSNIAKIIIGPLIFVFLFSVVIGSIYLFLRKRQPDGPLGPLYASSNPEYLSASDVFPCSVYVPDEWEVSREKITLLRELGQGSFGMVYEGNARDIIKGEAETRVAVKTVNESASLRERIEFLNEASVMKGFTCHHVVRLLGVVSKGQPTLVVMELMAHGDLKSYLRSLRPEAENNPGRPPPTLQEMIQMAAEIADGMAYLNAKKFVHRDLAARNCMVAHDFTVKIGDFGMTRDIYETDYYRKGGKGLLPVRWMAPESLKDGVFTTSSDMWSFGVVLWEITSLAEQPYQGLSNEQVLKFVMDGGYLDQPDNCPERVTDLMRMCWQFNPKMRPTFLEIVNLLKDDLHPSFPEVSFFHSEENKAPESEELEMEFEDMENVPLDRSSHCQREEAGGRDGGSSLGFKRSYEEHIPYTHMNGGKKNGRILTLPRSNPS
Chain of TRAF2 and NCK-interacting protein kinase (Homo sapiens) (Q9UKE5 whole entry, looked up): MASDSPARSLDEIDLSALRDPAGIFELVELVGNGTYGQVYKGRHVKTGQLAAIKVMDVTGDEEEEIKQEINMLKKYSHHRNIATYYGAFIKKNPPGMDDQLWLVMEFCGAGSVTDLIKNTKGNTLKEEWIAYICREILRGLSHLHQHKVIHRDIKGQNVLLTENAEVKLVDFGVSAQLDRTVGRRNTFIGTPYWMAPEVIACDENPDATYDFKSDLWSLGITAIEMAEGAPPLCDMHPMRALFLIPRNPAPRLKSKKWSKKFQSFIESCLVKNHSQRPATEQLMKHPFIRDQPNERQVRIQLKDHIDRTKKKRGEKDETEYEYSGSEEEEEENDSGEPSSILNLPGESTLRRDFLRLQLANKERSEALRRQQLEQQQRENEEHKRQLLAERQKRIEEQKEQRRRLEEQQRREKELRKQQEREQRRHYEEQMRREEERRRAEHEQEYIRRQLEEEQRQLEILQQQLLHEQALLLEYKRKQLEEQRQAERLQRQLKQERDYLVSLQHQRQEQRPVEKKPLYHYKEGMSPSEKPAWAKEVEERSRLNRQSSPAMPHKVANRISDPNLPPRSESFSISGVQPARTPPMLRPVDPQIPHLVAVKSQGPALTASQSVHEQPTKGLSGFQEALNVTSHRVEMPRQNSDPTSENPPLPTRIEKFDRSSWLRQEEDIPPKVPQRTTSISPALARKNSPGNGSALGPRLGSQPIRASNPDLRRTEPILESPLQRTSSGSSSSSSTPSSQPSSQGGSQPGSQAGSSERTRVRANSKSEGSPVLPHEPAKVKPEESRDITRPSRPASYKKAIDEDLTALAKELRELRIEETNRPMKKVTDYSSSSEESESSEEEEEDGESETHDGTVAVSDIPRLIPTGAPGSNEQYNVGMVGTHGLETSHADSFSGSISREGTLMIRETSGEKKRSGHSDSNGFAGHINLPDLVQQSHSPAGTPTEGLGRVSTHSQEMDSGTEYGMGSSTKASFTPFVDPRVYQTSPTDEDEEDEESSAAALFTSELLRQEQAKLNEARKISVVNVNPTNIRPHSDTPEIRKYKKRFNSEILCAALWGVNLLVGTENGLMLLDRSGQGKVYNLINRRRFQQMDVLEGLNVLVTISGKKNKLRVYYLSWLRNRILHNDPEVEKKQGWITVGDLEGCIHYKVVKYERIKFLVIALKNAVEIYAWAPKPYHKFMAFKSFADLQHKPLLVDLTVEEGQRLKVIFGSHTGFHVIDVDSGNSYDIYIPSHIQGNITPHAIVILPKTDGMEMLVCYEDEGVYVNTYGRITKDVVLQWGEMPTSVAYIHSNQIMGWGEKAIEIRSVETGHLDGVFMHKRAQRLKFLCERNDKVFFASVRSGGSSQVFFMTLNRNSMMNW
Chain of Serine/threonine-protein kinase PAK 2 (Homo sapiens) (Q13177 whole entry): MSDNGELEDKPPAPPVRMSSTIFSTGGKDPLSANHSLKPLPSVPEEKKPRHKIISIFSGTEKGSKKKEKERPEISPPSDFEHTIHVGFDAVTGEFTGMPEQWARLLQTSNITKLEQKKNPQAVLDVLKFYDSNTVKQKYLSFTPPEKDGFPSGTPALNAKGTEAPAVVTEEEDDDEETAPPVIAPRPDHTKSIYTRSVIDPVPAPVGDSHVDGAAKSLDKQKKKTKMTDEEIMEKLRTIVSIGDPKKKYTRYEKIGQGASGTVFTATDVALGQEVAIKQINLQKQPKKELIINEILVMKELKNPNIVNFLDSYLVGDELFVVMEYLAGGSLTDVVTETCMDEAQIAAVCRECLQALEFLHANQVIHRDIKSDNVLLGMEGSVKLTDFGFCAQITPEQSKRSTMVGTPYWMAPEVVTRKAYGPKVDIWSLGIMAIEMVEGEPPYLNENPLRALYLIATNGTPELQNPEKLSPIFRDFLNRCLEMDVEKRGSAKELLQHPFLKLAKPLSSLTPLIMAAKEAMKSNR

Question: Which results are given for `NS(=O)(=O)c1cc(NC(=O)Cc2ccccc2)ccc1Oc1cccc(Cl)c1` [BAY-1797]?
Answer: residual activity [1]: 96%; residual activity [2]: 84%; residual activity [3]: 87%; residual activity [4]: 91%; inhibition [5]: 14.3%; residual activity [6]: 96%; residual activity [7]: 93%; residual activity [8]: 91%; residual activity [9]: 100%; residual activity [10]: 92%; residual activity [11]: 87%; residual activity [12]: 100%; residual activity [13]: 100%; residual activity [14]: 73%; residual activity [15]: 100%; residual activity [16]: 100%; residual activity [17]: 73%; residual activity [18]: 100%; residual activity [19]: 93%; residual activity [20]: 77%; residual activity [21]: 100%; residual activity [22]: 87%; inhibition [23]: 1.74%; residual activity [24]: 80%; inhibition [25]: -2.5%; residual activity [26]: 100%; residual activity [27]: 100%; residual activity [28]: 100%; residual activity [29]: 100%; residual activity [30]: 100%; residual activity [31]: 76%; residual activity [32]: 100%; residual activity [33]: 73%; residual activity [34]: 99%; residual activity [35]: 72%; residual activity [36]: 71%; residual activity [37]: 52%; residual activity [38]: 0%; residual activity [39]: 83%; residual activity [40]: 91%; residual activity [41]: 100%; residual activity [42]: 100%; residual activity [43]: 91%; residual activity [44]: 84%; residual activity [45]: 51%

Question: How did the residual activity [1] turn out when `NS(=O)(=O)c1cc(NC(=O)C2(c3ccccc3Cl)CC2)ccc1Oc1cccc(Cl)c1` [BAY-207] was run?
Answer: 99%

Question: What about the residual activity [2] of the same compound?
Answer: 100%

Question: What about the residual activity [3] of the same compound?
Answer: 100%

Question: What about the residual activity [4] of the same compound?
Answer: 100%

Question: What about the inhibition [5] of the same compound?
Answer: -3.09%

Question: What about the residual activity [6] of the same compound?
Answer: 65%

Question: And the residual activity [7]?
Answer: 100%

Question: What about the residual activity [8] of the same compound?
Answer: 97%

Question: And the residual activity [9]?
Answer: 88%

Question: What about the residual activity [10] of the same compound?
Answer: 90%

Question: And the residual activity [11]?
Answer: 87%

Question: What about the residual activity [12] of the same compound?
Answer: 100%

Question: What about the residual activity [13] of the same compound?
Answer: 100%

Question: What about the residual activity [14] of the same compound?
Answer: 92%

Question: What about the residual activity [15] of the same compound?
Answer: 95%

Question: And the residual activity [16]?
Answer: 100%

Question: And the residual activity [17]?
Answer: 83%

Question: What about the residual activity [18] of the same compound?
Answer: 100%

Question: What about the residual activity [19] of the same compound?
Answer: 100%

Question: And the residual activity [20]?
Answer: 96%

Question: And the residual activity [21]?
Answer: 82%

Question: What about the residual activity [22] of the same compound?
Answer: 74%

Question: And the inhibition [23]?
Answer: 6.75%

Question: And the residual activity [24]?
Answer: 100%

Question: And the inhibition [25]?
Answer: 11.3%

Question: What about the residual activity [26] of the same compound?
Answer: 100%

Question: And the residual activity [27]?
Answer: 100%

Question: And the residual activity [28]?
Answer: 100%

Question: What about the residual activity [29] of the same compound?
Answer: 86%

Question: What about the residual activity [30] of the same compound?
Answer: 80%

Question: What about the residual activity [31] of the same compound?
Answer: 85%

Question: And the residual activity [32]?
Answer: 79%

Question: What about the residual activity [33] of the same compound?
Answer: 100%

Question: What about the residual activity [34] of the same compound?
Answer: 45%

Question: What about the residual activity [35] of the same compound?
Answer: 71%

Question: What about the residual activity [36] of the same compound?
Answer: 100%

Question: What about the residual activity [37] of the same compound?
Answer: 100%

Question: What about the residual activity [38] of the same compound?
Answer: 88%

Question: What about the residual activity [39] of the same compound?
Answer: 72%

Question: What about the residual activity [40] of the same compound?
Answer: 61%

Question: What about the residual activity [41] of the same compound?
Answer: 100%

Question: What about the residual activity [42] of the same compound?
Answer: 100%

Question: What about the residual activity [43] of the same compound?
Answer: 89%

Question: What about the residual activity [44] of the same compound?
Answer: 100%

Question: What about the residual activity [45] of the same compound?
Answer: 100%
